Data: PubChem BioAssay (NCI)
“And” between values parts separate entries of the source, which are not always exact repeats. Identical values can stand only once.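 48-hour exposure; five concentrations; linearly interpolated endpoints. Abbreviation: GI50, concentration required for 50% inhibition of growth. TGI is the concentration that stops growth completely.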

How the values were obtained:
Test in all cases: NCI tumour cell line growth inhibition, 48 h
MDA-N = test system: MDA-N
DLD-1 colon = test system: DLD-1 colon
DMS 273 small cell lung = test system: DMS 273 small cell lung
HOP-18 NSCLC = test system: HOP-18 NSCLC
LXFL 529 NSCLC = test system: LXFL 529 NSCLC
M19-MEL melanoma = test system: M19-MEL melanoma
RXF-631 renal = test system: RXF-631 renal
SNB-78 CNS = test system: SNB-78 CNS
P388 leukemia = test system: P388 leukemia
P388/ADR leukemia = test system: P388/ADR leukemia
SN12K1 renal = test system: SN12K1 renal

Row | Compound | TGI (DLD-1 colon) [µM] | TGI (DMS 273 small cell lung) [µM] | TGI (HOP-18 NSCLC) [µM] | TGI (LXFL 529 NSCLC) [µM] | TGI (M19-MEL melanoma) [µM] | TGI (RXF-631 renal) [µM] | TGI (SNB-78 CNS) [µM] | further results
1 | O=C(c1ccccc1)C1N=NCC1c1ccc([N+](=O)[O-])cc1 (stereo not drawn) |  |  |  |  |  |  |  | TGI (MDA-N): > 100 µM
2 | C=C1C(=O)O[C@H]2[C@H]1[C@H](OC(=O)/C(C)=C\C)CC(=C)[C@@H]1[C@H](O)[C@H]3O[C@@]3(C)[C@@]12O | > 100 | > 100 | > 100 | > 100 | > 100 | > 100 | > 100 | 
3 | C=CCC1([C@H](C)[C@@H](OC(C)=O)c2cc(OC)c(OC)c(OC)c2)C[C@@H](OC)CCC1=O (stereo partly drawn) | 37.5 |  |  | 31.2 | 91.3 |  |  | 
4 | CC(=O)NNc1nc(C)c(C(=O)NNC(=O)C(=O)Nc2ccccc2C#N)s1 | > 100 | > 100 | > 100 | > 100 | > 100 | > 100 | > 100 | 
5 | COc1ccccc1NC(=O)CC(=O)N1N=C(C)C(N=Nc2ccc(S(N)(=O)=O)cc2)C1=O (stereo not drawn) | > 100 | > 100 | > 100 | > 100 | > 100 |  | > 100 | 
6 | N#C/C(=C1\OC(=O)C(c2ccc(Br)cc2)=C1O)c1ccc(Br)cc1 | 34.6 | 48.2 | 26.3 | 22.1 | 31.1 | 92.6 | 28.2 | 
7 | COc1ccc(-c2cc(=O)c3cc4c(cc3[nH]2)OCO4)c(OC)c1OC | > 100 | > 100 | > 100 | > 100 | > 100 |  | > 100 | 
8 | CC(=O)NC(CCCNCc1ccccc1)C(=O)NCc1ccccc1 (stereo not drawn) | > 100 | > 100 |  | > 100 | > 100 | > 100 | > 100 | 
9 | N#CC(C(=O)/C(=N/NC(=O)c1ccccc1O)C(C#N)c1ccc(Cl)cc1)c1ccc(Cl)cc1 (stereo not drawn) | 33 |  | 23.6 | 25.1 | 55.3 |  | > 100 | 
10 | O=C(c1ccc(F)cc1)c1cccc(C(=O)c2ccc(F)cc2)n1 | > 100 | > 100 | > 100 | > 100 | > 100 |  | > 58.1 | TGI (MDA-N): > 100 µM
11 | CN(C(=O)C12C3C4C5C3C1(C(=O)O)C5C42)C(C)(C)C (stereo not drawn) | 55.2 | 33.5 | > 100 | > 100 | > 100 | > 100 | > 100 | 
12 | COc1cc2c(cc1OC)C(N(C)C)C(c1ccccc1)=C2Cl (stereo not drawn) | 32.3 | 30.9 | > 100 |  | 39.1 | 30.5 |  | 
13 | COc1cc(C2c3cc4c(cc3OC(N3CCCC3)C2C)OCO4)cc(OC)c1OC (stereo not drawn) |  |  |  |  |  |  |  | TGI (MDA-N): 0.418 µM
14 | COc1cccc(NC(=O)CC(=O)N2N=C(N(CCC#N)c3ccc(Cl)cc3)CC2c2ccccc2)c1 (stereo not drawn) | > 100 | > 100 | > 100 | > 100 | > 100 |  | > 100 | 
15 | CC1=NOC(=O)/C1=C/c1ccccc1O | > 100 | > 100 | > 100 | > 100 | > 100 | > 100 | > 100 | 
16 | c1cc(-c2cn3ccsc3n2)ccn1 | > 100 | > 100 | > 100 | > 100 | > 100 | > 100 | > 100 | 
17 | O=C(CC(=O)CC(O)(C(F)(F)F)C(F)(F)F)CC(O)(C(F)(F)F)C(F)(F)F |  |  |  |  |  |  |  | TGI (MDA-N): > 10 µM
18 | O=C([O-])c1ccccc1Nc1ccccn1.O=C([O-])c1ccccc1Nc1ccccn1.[Ni+2] | > 100 |  |  | > 100 | > 100 |  | > 100 | GI50 (DLD-1 colon): > 100 µM; GI50 (LXFL 529 NSCLC): 55.2 µM; GI50 (M19-MEL melanoma): > 100 µM; GI50 (SNB-78 CNS): 91.8 µM
19 | Cc1cccc(NC(=O)CC(=O)N2N=C(N(CCC#N)c3ccc(Cl)cc3)CC2c2ccccc2)c1 (stereo not drawn) | > 100 | > 100 | > 100 | > 100 | > 100 | > 100 | > 100 | 
20 | CCCc1[nH]nc(CCC(=O)N(Cc2ccccc2)Cc2ccccc2)c1CC | > 100 | > 100 | > 100 | > 100 | > 100 | > 100 |  | 
21 | CNS(=O)(=O)NN(C)S(=O)(=O)c1ccc(F)cc1 | > 100 | > 100 | > 100 | > 100 |  |  |  | 

Row | Compound | TGI (DLD-1 colon) [µM] | TGI (DMS 273 small cell lung) [µM] | TGI (HOP-18 NSCLC) [µM] | TGI (LXFL 529 NSCLC) [µM] | TGI (M19-MEL melanoma) [µM] | TGI (RXF-631 renal) [µM] | TGI (SNB-78 CNS) [µM] | further results
22 | CC1=NCCc2c1[nH]c1cc(O)ccc21 | > 100 |  | > 100 | > 100 | > 100 | > 100 | > 100 | 
23 | COc1cc(C2c3cc4c(cc3[C@@H](Nc3ccc(C#N)cc3)C3COC(=O)[C@H]23)OCO4)cc(OC)c1O (stereo partly drawn) | 3.51 |  | 39.3 |  |  |  | 75 | TGI (MDA-N): 18.7 µM and > 100 µM; TGI (P388 leukemia): 0.832 µM; TGI (P388/ADR leukemia): 2.11 µM; TGI (SN12K1 renal): 3.94 µM
24 | COc1ccccc1NC(=O)C1=C(C)NC(C)=C(C(=O)Nc2ccccc2OC)C1c1ccccc1F | > 100 | > 100 | > 100 | > 100 |  | > 100 | > 100 | 
25 | COC(=O)CCC1CCc2c(OC)ccc(O)c2C1=O (stereo not drawn) | > 100 | > 100 |  | > 100 | > 100 | > 100 | > 100 | 
26 | COc1nc(NC2OCC(OC(C)=O)C(OC(C)=O)C2OC(C)=O)c(N=CC=Nc2c(NC3OCC(OC(C)=O)C(OC(C)=O)C3OC(C)=O)nc(OC)n(C)c2=O)c(=O)n1C (stereo not drawn) | > 100 | > 100 | > 100 | > 100 | > 100 |  | > 100 | 
27 | COCCN1C2=CCCCC2=Nc2c1nc(N)[nH]c2=O | > 100 | > 100 | > 100 | > 100 | > 100 | > 100 | > 100 | 
28 | C[N+](C)(C)CC(=O)N/N=C(/Cc1nc2c3c(ccc2[nH]c1=O)C(=O)c1ccccc1C3=O)C(=O)Nc1ccc(Cl)c(Cl)c1 | > 100 |  |  |  | > 100 | > 100 |  | 
29 | Nc1cc2cccc[n+]2c2cc(Cl)ccc12 |  |  |  |  |  |  |  | GI50 (MDA-N): 12.6 µM; TGI (MDA-N): 38.8 µM
30 | Cc1ccc(C(=O)O/N=C2/CCC/C2=C\c2ccccc2)cc1 | > 100 | > 100 | > 100 | > 100 | > 100 |  | > 100 | 
31 | COC(=O)c1csnn1 |  | > 100 |  | > 100 | > 100 |  |  | 
32 | COc1ccc2nc3cc([N+](=O)[O-])ccc3c(NCCCCCN(C)C)c2c1 |  |  |  |  |  |  |  | GI50 (MDA-N): 0.438 µM; TGI (MDA-N): 1.57 µM
33 | Cc1occc1C(=S)Nc1ccc(Cl)c(COC(C)(C)C)c1 |  |  |  |  |  |  |  | TGI (MDA-N): 34.4 µM
34 | CC(C)C(=O)Nc1nc2nc[nH]c2c(=O)[nH]1 | > 100 | > 100 | > 100 | > 100 | > 100 | > 100 | > 100 | 
35 | COC(=O)CCC(NC(=S)N/N=C(\C)c1nccs1)C(=O)OC (stereo not drawn) | > 100 |  | > 100 | > 100 | > 100 | > 100 | > 100 | 
36 | CN(C)/C=C/c1nnc([N+](=O)[O-])s1 |  |  |  |  |  |  |  | TGI (MDA-N): 17.4 µM
37 | O=Cc1cn(C(=O)c2ccccc2)c2ccccc12 | > 100 | > 100 |  | > 100 | > 100 |  | > 100 | 
38 | Cc1ccc(S(=O)(=O)N2CCSCCSCCSCCSCC2)cc1 |  |  |  |  |  |  |  | TGI (MDA-N): > 100 µM
39 | CCCCCCCCCc1cc(=O)c2ccc(OCc3ccccc3)cc2o1 | > 100 | > 100 | > 100 | > 100 | > 100 |  | > 100 | 
40 | O=C(O)c1ccc([Se][Se]c2ccc(C(=O)O)cc2)cc1 | > 100 | 49.7 | 82.3 | 62.4 | 40.5 | 52.6 | 52.4 | 
41 | O=c1c2c([nH]c3cc4c(cc13)OCO4)-c1ccccc1CC2 | > 100 | > 100 |  | > 100 | > 100 | > 100 |  | 
42 | O=C(Cn1ccc(=O)[nH]c1=O)Nc1ccc(C(=O)O)c(O)c1 |  |  |  |  |  |  |  | TGI (MDA-N): > 100 µM
